Results published in patent US20250059174A1, “Pharmaceutical Compounds and Compositions as C-Kit Kinase Inhibitors” (Enanta Pharmaceuticals, Inc., priority 2023, published 2025).

Legend:
[1] = biological target: Recombinant human c-KIT kinase (Homo sapiens (Human), UniProt P10721); assay: c-KIT kinase chemiluminescence assay (ADP-Glo); assay type: biochemical; details: ATP 50 μM
How it was run: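 ADP formed by c-KIT on polyEY over 2 h at RT (after 30 min enzyme preincubation; Tris pH 7.5, MgCl2, BSA, DTT buffer) was detected by ADP-Glo luminescence. IC50 and Hill slope were fitted to control-normalized activity across compound concentrations.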

M-07e cells = assay: M-07e cellular assay (SCF-mediated cell proliferation); assay type: cell-based; details: Homo sapiens, 72 hours, CellTiter Glo
How it was run: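 CellTiter Glo luminescence after 72 h compound exposure in SCF (EC90)-stimulated M-07e cells expressing endogenous human c-KIT.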

Sequence of Recombinant human c-KIT kinase (P10721 26-976): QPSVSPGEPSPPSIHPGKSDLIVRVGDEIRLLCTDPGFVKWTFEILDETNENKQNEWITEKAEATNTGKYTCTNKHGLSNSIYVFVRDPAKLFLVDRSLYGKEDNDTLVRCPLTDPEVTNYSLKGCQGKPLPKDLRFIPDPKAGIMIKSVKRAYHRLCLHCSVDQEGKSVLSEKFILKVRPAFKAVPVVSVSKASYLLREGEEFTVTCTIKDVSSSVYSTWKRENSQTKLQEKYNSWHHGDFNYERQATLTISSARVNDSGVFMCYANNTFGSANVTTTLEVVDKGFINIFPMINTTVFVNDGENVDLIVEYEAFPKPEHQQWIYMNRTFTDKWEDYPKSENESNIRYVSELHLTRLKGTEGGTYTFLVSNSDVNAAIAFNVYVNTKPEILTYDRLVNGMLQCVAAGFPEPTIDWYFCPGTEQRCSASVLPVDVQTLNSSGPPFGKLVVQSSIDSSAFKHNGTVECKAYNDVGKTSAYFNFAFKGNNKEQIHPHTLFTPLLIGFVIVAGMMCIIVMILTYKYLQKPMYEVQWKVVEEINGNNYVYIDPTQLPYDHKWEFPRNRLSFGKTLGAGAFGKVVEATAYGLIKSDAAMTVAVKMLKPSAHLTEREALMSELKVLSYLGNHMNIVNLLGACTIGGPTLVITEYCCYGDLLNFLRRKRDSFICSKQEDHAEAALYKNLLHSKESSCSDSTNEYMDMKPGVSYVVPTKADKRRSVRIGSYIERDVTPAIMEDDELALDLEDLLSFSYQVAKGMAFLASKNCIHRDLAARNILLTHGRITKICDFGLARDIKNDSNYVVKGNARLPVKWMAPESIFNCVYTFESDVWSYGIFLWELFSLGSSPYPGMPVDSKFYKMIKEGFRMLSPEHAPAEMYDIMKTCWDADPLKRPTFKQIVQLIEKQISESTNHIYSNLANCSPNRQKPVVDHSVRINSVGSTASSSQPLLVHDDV

Compound | IC50 [1] | EC50 (M-07e cells)
Cc1ccc(-c2noc([C@H]3C[C@@H]3F)n2)cc1NC(=O)c1cnn2ccc(C3CC3)cc12 [Example 55] | < 100 nM | 100 to 1000 nM
Cc1ccc(-c2noc([C@H]3C[C@@H]3F)n2)cc1NC(=O)c1cnc(-c2ccc3c(c2)C(C)(C)C(=O)N3)o1 [Example 308-37] | 100 to 1000 nM | 100 to 1000 nM
Cc1ccc(-c2ncc(C(F)F)cn2)cc1NC(=O)c1cnn2ccc(N3CC4(COC4)C3)cc12 [Example 344] | 100 to 1000 nM | < 100 nM
Cc1ncc(-c2noc([C@H]3C[C@@H](OC(F)(F)F)C3)n2)cc1NC(=O)c1cnn2ccc(N3CC4(COC4)C3)cc12 [Example 270] | 100 to 1000 nM | < 100 nM
Cc1ccc(-c2noc([C@H]3C[C@@H]3F)n2)cc1NC(=O)c1cnn2ccc(-c3c(C)nc(N4CC5(COC5)C4)nc3C)cc12 [Example 171-14] | 100 to 1000 nM | 100 to 1000 nM
C=CCC1c2ccccc2-c2ncc(C(=O)Nc3cc(-c4noc([C@H]5C[C@@H]5F)n4)ccc3C)n21 (some centres unmarked) [Example 103] | 100 to 1000 nM | 100 to 1000 nM
Cc1ccc(-c2noc(C3CN(C(=O)C4(F)CC4)C3)n2)cc1NC(=O)c1cnn2ccc(N3CC4(COC4)C3)cc12 [Example 281-33] | 100 to 1000 nM | 100 to 1000 nM
Cc1cnc(-c2ccn3ncc(C(=O)Nc4cc(-c5noc([C@H]6C[C@@H]6F)n5)ccc4C)c3c2)c(C)n1 [Example 171-30] | < 100 nM | < 100 nM
Cc1ccc(-c2noc([C@H]3C[C@@H]3F)n2)cc1NC(=O)c1cnn2cc(-c3ccc(F)cc3)ccc12 [Example 149] | < 100 nM | < 100 nM
Cc1ccc(-c2noc([C@H]3C[C@@H]3F)n2)cc1NC(=O)c1cnn2ccc(N3CC(C(C)(C)O)C3)cc12 [Example 179] | < 100 nM | < 100 nM
Cc1nc(C)c(-c2ccn3ncc(C(=O)Nc4cc(-c5noc([C@H]6C[C@@H](OC(F)(F)F)C6)n5)ccc4C)c3c2)c(C)n1 [Example 171-5] | 100 to 1000 nM | 100 to 1000 nM
Cc1ccc(-c2noc([C@H]3C[C@@H]3F)n2)cc1NC(=O)c1cnc(-c2ccc3c(c2)O[C@@H](C)CN3)o1 [Example 308-53] | 100 to 1000 nM | 100 to 1000 nM
O=C(Nc1cc(-c2noc(N3CC(F)(F)C3)n2)ccc1Cl)c1cnn2ccc(N3CC4(COC4)C3)cc12 [Example 281-124] | 100 to 1000 nM | < 100 nM
Cc1ccc(-c2noc([C@H]3C[C@@H]3F)n2)cc1NC(=O)c1cnn2ccc(-c3nnc(N)nc3C)cc12 [Example 171-1] | < 100 nM | < 100 nM
Cc1cc(C)n(-c2ncc(C(=O)Nc3cc(-c4noc([C@H]5C[C@@H]5F)n4)ccc3C)o2)n1 [Example 308-6] | > 1000 nM | > 1000 nM
COC(=O)N1CC(Cc2nc(-c3ccc(C)c(NC(=O)c4cnn5ccc(N6CC7(COC7)C6)cc45)c3)no2)C1 [Example 281-29] | 100 to 1000 nM | 100 to 1000 nM
CC#Cc1ccc2c(C(=O)Nc3cc(-c4noc([C@H]5C[C@@H]5F)n4)c(F)cc3C)cnn2c1 [Example 132-2] | 100 to 1000 nM | 100 to 1000 nM
Cc1ccc(-c2noc([C@H]3C[C@@H](OC(F)F)C3(C)C)n2)cc1NC(=O)c1cnn2ccc(N3CC4(CCN(CC(F)(F)F)C4)C3)cc12 [Example 254] | 100 to 1000 nM | 100 to 1000 nM
Cc1sc(-c2cnc(C3CC3)nc2)cc1NC(=O)c1cnn2ccc(N3CC4(C3)CC(O)(C(F)F)C4)cc12 [Example 355] | 100 to 1000 nM | < 100 nM
Cc1ccc(-c2noc([C@H]3C[C@@H]3F)n2)cc1NC(=O)c1cnc(-c2ccc(NS(C)(=O)=O)cc2)o1 [Example 308-22] | 100 to 1000 nM | 100 to 1000 nM
Cc1ccc(-c2noc([C@H]3C[C@@H](OC(F)F)C3)n2)cc1NC(=O)c1cnn2ccc(N3CC4(C3)CC(O)(C(F)(F)F)C4)cc12 [Example 281-22] | < 100 nM | < 100 nM
Cc1ccc(-c2noc(C3CN(C(=O)C(F)(F)F)C3)n2)cc1NC(=O)c1cnn2ccc(N3CC4(COC4)C3)cc12 [Example 281-47] | 100 to 1000 nM | > 1000 nM
Cc1ccc(-c2noc([C@H]3C[C@@H]3F)n2)cc1NC(=O)c1cnn2ccc(N3CC(C(=O)N4CC(F)(F)C4)C3)cc12 [Example 241-11] | < 100 nM | < 100 nM

Compound | IC50 [1] | EC50 (M-07e cells)
Cc1ccc(-c2noc([C@H]3C[C@@H]3F)n2)cc1NC(=O)c1cnc(-c2ccc(-c3cnn(C)c3)cc2)o1 [Example 308-16] | 100 to 1000 nM | 100 to 1000 nM
Cc1ccc(-c2noc([C@H]3C[C@@H]3F)n2)cc1NC(=O)c1cnn2ccc(N3CC(CO)(CO)C3)cc12 [Example 241-3] | < 100 nM | < 100 nM
Cc1ccc(-c2noc([C@H]3C[C@@H]4[C@H](C3)C4(F)F)n2)cc1NC(=O)c1cnn2ccc(N3CC4(COC4)C3)cc12 [Example 280] | < 100 nM | < 100 nM
O=C(Nc1cc(-c2noc([C@H]3C[C@@H](OC(F)(F)F)C3)n2)ccc1Cl)c1cnn2ccc(N3CC4(C3)CC(O)(C(F)F)C4)cc12 [Example 281-28] | < 100 nM | < 100 nM
Cc1ccc(-c2noc([C@H]3C[C@@H]3F)n2)cc1NC(=O)c1cnc(-c2ccc(NC(N)=O)cc2)o1 [Example 308-47] | 100 to 1000 nM | 100 to 1000 nM
Cc1cc(F)c(-c2noc([C@H]3C[C@@H]3F)n2)cc1NC(=O)c1cnn2ccc(N3CC4(C3)CN(S(C)(=O)=O)C4)cc12 [Example 281-24] | < 100 nM | 100 to 1000 nM
Cc1ccc(-c2noc([C@H]3C[C@@H]3F)n2)cc1NC(=O)c1cnc(-c2ccc3[nH]ccc3c2)o1 [Example 293] | < 100 nM | < 100 nM
Cc1ccc(-c2noc([C@H]3C[C@@H](OC(F)(F)F)C3)n2)cc1NC(=O)c1cnn2ccc(N3CC4(CCN(CC(F)F)C4)C3)cc12 [Example 251] | 100 to 1000 nM | 100 to 1000 nM
Cc1ccc(-c2noc([C@H]3C[C@@H]3F)n2)cc1NC(=O)c1cnn2ccc(-c3cn(C45CC(F)(C4)C5)nn3)cc12 [Example 124] | < 100 nM | < 100 nM
Cc1ccc(-c2noc([C@H]3C[C@@H]3F)n2)cc1NC(=O)c1cnc(-c2cnc3[nH]ccc3c2)o1 [Example 308-17] | < 100 nM | < 100 nM
COC(=O)N1CC(c2nc(-c3cnc(C)c(NC(=O)c4cnn5ccc(N6CC7(C6)CC(O)(C(F)F)C7)cc45)c3)no2)C1 [Example 281-78] | < 100 nM | < 100 nM
Cc1ccc(-c2noc([C@H]3C[C@@H]3F)n2)cc1NC(=O)c1cnc2sccn12 [Example 30] | < 100 nM | 100 to 1000 nM
Cc1ccc(-c2noc([C@H]3C[C@@H]3F)n2)cc1NC(=O)c1cnn2ccc(N3CC[C@H](NC(=O)OC(C)(C)C)C3)cc12 [Example 193] | 100 to 1000 nM | 100 to 1000 nM
Cc1ccc(-c2noc([C@H]3C[C@@H](OC(C)C)C3)n2)cc1NC(=O)c1cnn2ccc(N3CC4(CN(CC(F)(F)F)C4)C3)cc12 [Example 246] | 100 to 1000 nM | < 100 nM
Cc1ccc(-c2noc([C@H]3C[C@@H]3F)n2)cc1NC(=O)c1cnn2ccc(N3CC4(CCN(CC(F)(F)F)C4)C3)cc12 [Example 188] | 100 to 1000 nM | 100 to 1000 nM
Cc1ccc(-c2noc([C@H]3C[C@@H]3F)n2)cc1NC(=O)c1cnn2ccc(-c3cnc(NC4CC4)nc3)cc12 [Example 159] | < 100 nM | < 100 nM
Cc1ccc(-c2noc([C@H]3C[C@@H]3F)n2)cc1NC(=O)c1cnn2ccc(-c3cn(CC(C)(C)O)nn3)cc12 [Example 122] | < 100 nM | < 100 nM
Cc1ccc(-c2noc([C@H]3C[C@@H]3F)n2)cc1NC(=O)c1cnn2ccc(NC(=O)c3ccccc3)cc12 [Example 93] | 100 to 1000 nM | 100 to 1000 nM
Cc1ccc(-c2noc(N3CCOCC3)n2)cc1NC(=O)c1cnn2ccc(N3CC4(C3)CC(O)(C(F)F)C4)cc12 [Example 281-100] | 100 to 1000 nM | < 100 nM
Cc1ccc(-c2nccc(C3CC3)n2)cc1NC(=O)c1cnn2ccc(N3CC4(COC4)C3)cc12 [Example 334] | 100 to 1000 nM | < 100 nM
O=C(Nc1cc(-c2noc([C@H]3C[C@@H]3F)n2)ccc1Cl)c1cnn2ccc(N3CC4(C3)CC(O)(C(F)F)C4)cc12 [Example 281-26] | 100 to 1000 nM | < 100 nM
Cc1nc(C)c(-c2ccn3ncc(C(=O)Nc4cc(-c5noc([C@H]6C[C@@H]6F)n5)ccc4C)c3c2)c(C)n1 [Example 171-4] | 100 to 1000 nM | 100 to 1000 nM
Cc1ccc(-c2noc([C@H]3C[C@@H](OC(F)F)C3)n2)cc1NC(=O)c1cnn2ccc(N3CC4CC(C3)O4)cc12 [Example 257] | < 100 nM | 100 to 1000 nM
